Test results published in PubChem BioAssay (NCI).
Several values for one entry are separate records, joined by “and”; a condition that tells them apart may be missing. Equal entries are not always repeated.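 1) Cells in 96-well plates. 2) Compound, 48 h, 5 concentrations. 3) Linear interpolation between surrounding doses. 4) Unreached endpoint = highest concentration. The concentration for 50% growth inhibition is given as GI50. The concentration for full growth arrest is given as TGI.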 *1 amine or outer side, *2 acyl side, *3 side chain or, on linkers, in order; H or OH if unused. Where a SMILES comes first, the peptide text is derived from it. Bridges are numbered along the chain shown (N, C = ends). [ ]: non-standard residue; d: D form. The star is where a group is joined. Phe(3-Me) = Cc1cccc(C[C@H](N)C(=O)O)c1; NH(4-Cl-2-F-phenyl) = Fc1cc(Cl)ccc1N*; Pro(4R-Me) = C[C@H]1CN[C@H](C(=O)O)C1; Propanoyl(3-NMe2) = CN(C)CCC(=O)*; Hyp = O=C(O)[C@@H]1C[C@@H](O)CN1; aThr = C[C@H](O)[C@H](N)C(=O)O; Pip = O=C(O)[C@@H]1CCCCN1; CO = O=C([*:1])[*:2]

Test system: MDA-MB-468 breast
Assay: NCI tumour cell line growth inhibition, 48 h

| Structure (SMILES) | GI50 | TGI |
| --- | --- | --- |
| O=S(=O)(NCCCNc1cc(-c2cn(-c3ccccc3)nc2-c2cccc(O)c2)ccn1)c1ccc(Cl)cc1 | 1.16 µM | 4.56 µM |
| CCc1ccc(Nc2cc(C)nc3nc(C)nn23)cc1 | 28.6 µM | > 100 µM |
| CC/C=C\C/C=C\C[C@H]1C/C=C2/C(=O)C=C[C@H]2C/C=C\CCC(=O)O1 | 1.86 µM | 5 µM |
| N=c1ccn2c(n1)O[C@@H]1[C@@H](O)[C@H](CO)O[C@@H]12 | 48.4 µM | > 100 µM |
| CC(C)Oc1ccc(C(=O)N[C@H](CNC(=O)CN(C)C)Cc2ccc(-c3cn4cccc([C@H](C)O)c4n3)cc2)cc1Cl | 0.0389 µM | 17.5 µM |
| C=C1N(C)c2ccc(Cl)cc2C1(C)C | 2.64 µM | 15.6 µM |
| CCN1CCN(C(=O)[C@]23CCC(C)(C)C[C@@H]2C2=CC[C@@H]4[C@@]5(C)C/C(=C/c6cccnc6)C(=O)C(C)(C)[C@@H]5CC[C@@]4(C)[C@]2(C)CC3)CC1 | 1.28 µM | 3.94 µM |
| COc1cc(OC)cc(-c2cncn2-c2ccc(-c3nc4cc(OC)c(OC)c(OC)c4s3)cc2)c1 | 10.7 µM | > 100 µM |
| CCCN1CCN(c2ccc3nc(-c4ccc5nc(-c6ccc(OCC)c(OCC)c6)[nH]c5c4)[nH]c3c2)CC1 | 0.369 µM | 1.3 µM |
| CC(C)[C@@H]1CC[C@@H]2[C@@H]1[C@H](OC(=O)/C=C/c1ccccc1)[C@]1(C(C)C)C[C@@H](OC(=O)CO)[C@@]2(C)O1 | 6.07 µM | 12.6 µM |
| O=C1c2cccnc2C(=O)c2c1c(C(=O)OCCN1CCOCC1)c1ccccn21 | 1.51 µM | 6.74 µM |
| O=C(Nc1ccc(Br)cc1F)c1cc(Br)ccc1O | 0.873 µM | 5.42 µM |
| Cc1ccc(NC(=O)c2nc(S(C)=O)oc2-c2ccc(F)cc2)cc1Nc1nccc(-c2cccnc2)n1 (configuration not stated) | 2.14 µM | 4.65 µM |
| O=C(CN1CCN(c2ccc(Cl)cc2)CC1)N1CCN(c2nnc(-c3ccccc3)c(-c3ccccc3)n2)CC1 | 1.83 µM | 53.3 µM |
| NC[C@@](O)(c1ccc(Cl)cc1)c1ccc(-c2cn[nH]c2)cc1 | 1.08 µM and 0.54 µM | 3.79 µM and 2.01 µM |
| C[C@@]1(N2C(=O)OC[C@@H]2c2ccccc2)C(=O)N([C@H](CC(=O)N2CCC(N3CCCCC3)CC2)C(=O)NCc2cccc(C(F)(F)F)c2)[C@@H]1/C=C/c1ccccc1 | 1.9 µM | 3.77 µM |
| CC[C@@]1(O)C(=O)OCc2c1cc1n(c2=O)Cc2c-1nc1ccccc1c2/C=N/OC(C)(C)C | < 0.01 µM | 0.0592 µM |
| CC[C@]12CCCN3CC[C@]4(C(=C(C(=O)OC)C1)Nc1ccccc14)[C@@H]32 | 11.7 µM | 28 µM |
| Nc1c(C(=O)Nc2ccccc2)sc2nc3c(cc12)CCCC3 | 0.317 µM | 47.9 µM |
| COc1cc2c3c(n(CCCN4CCCC4)c(=O)c2cc1OC)-c1cc2c(cc1C3=O)OCO2 | 1.57 µM | 3.17 µM |
| Nc1nc2c(c3cnccc13)C(c1cccc(Cl)c1)Cc1cnccc1-2 (configuration not stated) | 0.21 µM | 0.576 µM |

| Structure (SMILES) | GI50 | TGI |
| --- | --- | --- |
| CSc1nc2c(c(=O)[nH]1)C(c1ccc(Cl)cc1)C1=C(N2)/C(=C/c2ccc(Cl)cc2)CNC1 (configuration not stated) | 1.8 µM | 4.02 µM |
| CN1CCCN(C(c2ccccc2)c2ccc(Br)cc2)CC1 (configuration not stated) | 1.93 µM | 6.53 µM |
| O=C(/C=C/c1cccnc1)c1ccccc1O | 15.1 µM | 37.3 µM |
| COc1cc(C2C(C#N)=C(N)Oc3cc(O)ccc32)cc(OC)c1OC (configuration not stated) | 0.28 µM | 1.14 µM |
| COc1ccc(/C=C/C(=O)c2ccc(Nc3ccnc4cc(Cl)ccc34)cc2)cc1 | > 100 µM | > 100 µM |
| CC1Cc2cc(O)ccc2C2[C@@H]1C1CC[C@H](O)[C@@]1(C)C[C@@H]2O[N+](=O)[O-] (some centres not stated) | 27.6 µM | > 100 µM |
| COc1cc2c3c(c4c5ccccc5[nH]c4c2c(OC)c1OC)C(=O)N(CCN1CCCCC1)C3=O | 1.6 µM | 19.2 µM |
| C/C(=N\NC(=O)c1ccncc1)c1ccc(O)cc1O | 4.16 µM | 50.8 µM |
| Cc1cccc(C[C@H](NC(=O)Nc2ccc(Cl)cc2F)C(=O)N[C@@H]2C(=O)N3C[C@H](OC(=O)CCN(C)C)C[C@H]3C(=O)N3CCCC[C@H]3C(=O)N[C@@H](C)C(=O)N3C[C@H](C)C[C@H]3C(=O)O[C@H]2C)c1 ({NH(4-Cl-2-F-phenyl)-CO}-[Phe(3-Me)][aThr][Hyp](Propanoyl(3-NMe2))[Pip]A[Pro(4R-Me)]; ester 2-C) | 0.255 µM | 0.894 µM |
| O=C(CCl)Nc1ccc2c(c1)C(=O)c1ccc(NC(=O)CCl)cc1C2=O | 0.425 µM | 1.55 µM |
| CCOC(=O)Nc1cccc(-n2cnc3cc(-c4ccc(O)cc4)ccc32)c1 | 0.243 µM | 10.6 µM |
| Cc1ccccc1/C=C1\CN(C(=O)OC(C)(C)C)C/C(=C\c2ccccc2C)C1=O | 1.83 µM | 4.45 µM |
| COc1ccc(-c2nc(C(Cl)Cl)nc3cc(-c4ccccc4)nn23)cc1 | 1.09 µM | 3.1 µM |
| O=C(O)c1cc(Sc2ccc([N+](=O)[O-])c(C(=O)O)c2)ccc1[N+](=O)[O-] | > 100 µM | > 100 µM |
| COc1ccc(Cn2c(Br)c3c(c2-c2cc(OC)c(OC)c(OC)c2)CCc2sc(NC(C)=O)nc2-3)cc1 | 4.86 µM | 46.3 µM |
| COc1ccc(-c2nocc2-c2cc(OC)c(OC)c(OC)c2)cc1 | 0.105 µM | 18.6 µM |
| COc1cc(NC(N)=NCCC(C)(C)c2ccc(C(F)(F)F)cc2)ncc1C#N | 1.24 µM | 2.8 µM |
| CC(=O)Nc1sc2c(c1-c1nc3ccccc3s1)CNC2 | 1.88 µM | 7.24 µM |
| COc1ccc(Nc2ncccc2C(=O)NCc2cn(Cc3cccc(Oc4ccccc4)c3)nn2)cc1 | 2.32 µM | 6.95 µM |
| C[C@]12CC[C@H]3[C@@H](C[C@@H]4N=C(c5ccc(O)cc5)S[C@@]45C[C@H](O)CC[C@]35C)[C@@H]1CC[C@@H]2O | 5.13 µM | 41.6 µM |
